Measurements from patent US8912184B1, “Therapeutic and diagnostic methods” (Alzheimer's Institute of America, Inc., priority 2010, dated 2014).
Where two headings read alike, the source gives them in different places.

Legend:
[1] = Maximum tolerated dose in mice; settings: nu/nu, mouse, in vivo, oral
[2] = Standard Cytotoxicity Assay for other cancer cell types (TC50, CellTiter-Glo); assay type: cell-based; settings: for CC50 at 3 day: read-out: Cmpd A 3 day TC50; for CC50 at 7 day: read-out: Cmpd A 7 day TC50
Description: (§1) Approximately 24 hours later, test compound was added from serial dilutions prepared in DMSO from DMSO stock solutions.

[3] = tested on: cancer cell lines; experiment: as above; assay type: cell-based
Description: as §1

[4] = human, MALME-3 cells (normal skin), MALME-3 cells (skin (normal))
[5] = human, hFLS-RA (primary synoviocytes)
[6] = keratinocytes (primary skin cells), keratinocytes (primary skin)

Structure (SMILES): O=C(NCc1cccnc1)Nc1ccc(COc2ccccc2-c2ccccc2)cc1 [Exemplary Compound A, 1-{4-[(biphenyl-2-yloxy)methyl]phenyl}-3-(pyridin-3-ylmethyl)urea]
- MTD [1]: 75 mg/kg
- CC50 at 3 day ([2]; SAEC (primary lung cells), SAEC (primary lung), value printed with (?)): 15000 nM
- CC50 at 3 day [2, 4]: > 5000 nM
- CC50 at 7 day [2, 4]: 0.9 nM
- CC50 at 3 day [2, 5]: > 25000 nM
- CC50 at 7 day [2, 5]: > 25000 nM
- CC50 at 3 day [2, 6]: 2.9 nM
- CC50 at 7 day [2, 6]: < 0.4 nM
- CC50 at 3 day ([2]; mouse, NIH-3T3 cells (fibroblast), NIH-3T3 cells (mouse; fibroblast)): 0.45 nM
- CC50 ([3]; 72 h, DB (lymphoma), 3 DAY, read-out: TC50 (the source's name)): 3.5 nM
- CC50 ([3]; 72 h, DEL cells (lymphoma), 3 day, read-out: Cmpd A 3 day TC50): 41 nM
- CC50 ([3]; 72 h, MC/CAR cells (myeloma), 3 day, read-out: Cmpd A 3 day TC50): 8.2 nM
- CC50 ([3]; 72 h, NAMALWA cells (lymphoma), 3 day, read-out: Cmpd A 3 day TC50): 0.85 nM
- CC50 ([3]; Calu-6 cells (lung (NSCLC)), 3 day, read-out: Cmpd A 3 day TC50): 12 nM
- CC50 ([3]; DU145 cells (prostate), 3 day, read-out: Cmpd A 3 day TC50): 3.8 nM
- CC50 ([3]; Daudi cells (lymphoma), 3 day, read-out: Cmpd A 3 day TC50): < 0.8 nM
- CC50 ([3]; Homo sapiens, 22Rv1, 72 h, 22RV1 cells (prostate), 3 day, read-out: Cmpd A 3 day TC50): 8.4 nM
- CC50 ([3]; Homo sapiens, A 172, 72 h, A172 (glioma), 3 DAY, read-out: TC50 (the source's name)): 1.1 nM
- CC50 ([3]; Homo sapiens, A498, 72 h, A498 cells (kidney), 3 day, read-out: Cmpd A 3 day TC50): 43 nM
- CC50 ([3]; Homo sapiens, A2058, 72 h, A2058 cells (melanoma (lymph node metastasis)), 3 day, read-out: Cmpd A 3 day TC50): 3.4 nM
- CC50 ([3]; Homo sapiens, ACHN, 72 h, ACHN cells (kidney), 3 day, read-out: Cmpd A 3 day TC50): 3.7 nM
- CC50 ([3]; Homo sapiens, BT-20, 72 h, BT-20 cells (breast), 3 day, read-out: Cmpd A 3 day TC50): 13 nM
- CC50 ([3]; Homo sapiens, BT-474, 168 h, BT-474 cells (breast), 7 day, read-out: Cmpd A 7 day TC50): 1.1 nM
- CC50 ([3]; Homo sapiens, BXPC-3, 72 h, BxPC-3 cells (pancreas), 3 day, read-out: Cmpd A 3 day TC50): 11 nM
- CC50 ([3]; Homo sapiens, CAMA-1, 72 h, CAMA-1 cells (breast), 3 day, read-out: Cmpd A 3 day TC50): 4.6 nM
- CC50 ([3]; Homo sapiens, CCRF-CEM, 72 h, CCRF-CEM cells (lymphocytic leukemia), 3 day, read-out: Cmpd A 3 day TC50): 2 nM
- CC50 ([3]; Homo sapiens, COLO 205, 72 h, COLO205 (colon), 3 DAY, read-out: TC50 (the source's name)): 0.5 nM
- CC50 ([3]; Homo sapiens, COLO 205, 168 h, COLO205 (colon), 7 DAY, read-out: TC50 (the source's name)): 0.3 nM
- CC50 ([3]; Homo sapiens, COLO 205, 168 h, COLO205 cells (colon), 7 day, read-out: Cmpd A 7 day TC50): 0.3 nM
- CC50 ([3]; Homo sapiens, Calu-6, 72 h, Calu-6 cells (lung (NSCLC)), 3 day, read-out: Cmpd A 3 day TC50): 11 nM
- CC50 ([3]; Homo sapiens, DBTRG-05MG, 72 h, DBTRG-05MG cells (brain; glioblastoma), 3 day, read-out: Cmpd A 3 day TC50): 19 nM
- CC50 ([3]; Homo sapiens, DLD-1, 72 h, DLD-1 cells (colon), 3 day, read-out: Cmpd A 3 day TC50): 1.7 nM
- CC50 ([3]; Homo sapiens, DMS-114, 72 h, DMS-114 (SCLC), 3 DAY, read-out: TC50 (the source's name)): 0.16 nM
- CC50 ([3]; Homo sapiens, DU-145, 72 h, DU145 (prostate), 3 DAY, read-out: TC50 (the source's name)): 3.9 nM
- CC50 ([3]; Homo sapiens, DU-145, 72 h, DU145 cells (prostate), 3 day, read-out: Cmpd A 3 day TC50): 3.9 nM
- CC50 ([3]; Homo sapiens, DU-145, 168 h, DU145 (prostate), 7 DAY, read-out: TC50 (the source's name)): 2.7 nM
- CC50 ([3]; Homo sapiens, DU-145, 168 h, DU145 cells (prostate), 7 day, read-out: Cmpd A 7 day TC50): 3 nM
- CC50 ([3]; Homo sapiens, DU-4475, 72 h, DU4475 (breast), 3 DAY, read-out: TC50 (the source's name)): 0.1 nM
- CC50 ([3]; Homo sapiens, DU-4475, 72 h, DU4475 cells (breast), 3 day, read-out: Cmpd A 3 day TC50): 0.1 nM
- CC50 ([3]; Homo sapiens, DU-4475, 168 h, DU4475 (breast), 7 DAY, read-out: TC50 (the source's name)): 0.1 nM
- CC50 ([3]; Homo sapiens, DU-4475, 168 h, DU4475 cells (breast), 7 day, read-out: Cmpd A 7 day TC50): 0.1 nM
- CC50 ([3]; Homo sapiens, Daudi, 72 h, Daudi cells (lymphoma), 3 day, read-out: Cmpd A 3 day TC50): 1.4 nM
- CC50 ([3]; Homo sapiens, EKVX, 72 h, EKVX cells (lung (NSCLC)), 3 day, read-out: Cmpd A 3 day TC50): 4 nM
- CC50 ([3]; Homo sapiens, EKVX, 168 h, EKVX cells (lung (NSCLC)), 7 day, read-out: Cmpd A 7 day TC50): 1 nM
- CC50 ([3]; Homo sapiens, H9, 72 h, H9 cells (lymphoma), 3 day, read-out: Cmpd A 3 day TC50): 3.2 nM
- CC50 ([3]; Homo sapiens, HCC827, 72 h, HCC827 (NSCLC), 3 DAY, read-out: TC50 (the source's name)): 8 nM
- CC50 ([3]; Homo sapiens, HCC827, 72 h, HCC827 cells (lung (NSCLC)), 3 day, read-out: Cmpd A 3 day TC50): 8 nM
- CC50 ([3]; Homo sapiens, HCC827, 168 h, HCC827 (NSCLC), 7 DAY, read-out: TC50 (the source's name)): 1.5 nM
- CC50 ([3]; Homo sapiens, HCC827, 168 h, HCC827 cells (lung (NSCLC)), 7 day, read-out: Cmpd A 7 day TC50): 1.5 nM
- CC50 ([3]; Homo sapiens, HCC1937, 72 h, HCC1937 cells (breast), 3 day, read-out: Cmpd A 3 day TC50): 61 nM
- CC50 ([3]; Homo sapiens, HCC1937, 168 h, HCC1937 cells (breast), 7 day, read-out: Cmpd A 7 day TC50): 1.5 nM
- CC50 ([3]; Homo sapiens, HCT-15, 72 h, HCT-15 (colon), 3 DAY, read-out: TC50 (the source's name)): 0.7 nM
- CC50 ([3]; Homo sapiens, HCT-15, 168 h, HCT-15 (colon), 7 DAY, read-out: TC50 (the source's name)): 1 nM
- CC50 ([3]; Homo sapiens, HCT-15, 168 h, HCT-15 cells (colon), 7 day, read-out: Cmpd A 7 day TC50): 1 nM
- CC50 ([3]; Homo sapiens, HCT-116, 72 h, HCT116 (colon), 3 DAY, read-out: TC50 (the source's name)): 0.6 nM
- CC50 ([3]; Homo sapiens, HCT-116, 72 h, HCT-116 cells (colon), 3 day, read-out: Cmpd A 3 day TC50): 0.2 to 4.4 nM
- CC50 ([3]; Homo sapiens, HCT-116, 168 h, HCT116 (colon), 7 DAY, read-out: TC50 (the source's name)): 0.4 nM
- CC50 ([3]; Homo sapiens, HCT-116, 168 h, HCT-116 cells (colon), 7 day, read-out: Cmpd A 7 day TC50): 0.4 nM
- CC50 ([3]; Homo sapiens, HL-60, 72 h, HL-60 cells (myelogenous leukemia), 3 day, read-out: Cmpd A 3 day TC50): 5.3 nM
- CC50 ([3]; Homo sapiens, HOP-62, 72 h, HOP62 cells (lung (NSCLC)), 3 day, read-out: Cmpd A 3 day TC50): 4 nM
- CC50 ([3]; Homo sapiens, HOP-92, 72 h, HOP92 (NSCLC), 3 DAY, read-out: TC50 (the source's name)): 17 nM
- CC50 ([3]; Homo sapiens, HOP-92, 72 h, HOP92 cells (lung (NSCLC)), 3 day, read-out: Cmpd A 3 day TC50): 17 nM
- CC50 ([3]; Homo sapiens, HOP-92, 168 h, HOP92 (NSCLC), 7 DAY, read-out: TC50 (the source's name)): 4.3 nM
- CC50 ([3]; Homo sapiens, HOP-92, 168 h, HOP92 cells (lung (NSCLC)), 7 day, read-out: Cmpd A 7 day TC50): 4.3 nM
- CC50 ([3]; Homo sapiens, HOS, 72 h, HOS cells (osteosarcoma), 3 day, read-out: Cmpd A 3 day TC50): < 0.8 nM
- CC50 ([3]; Homo sapiens, HT-29, 72 h, HT29 (colon), 3 DAY, read-out: TC50 (the source's name)): 1.4 nM
- CC50 ([3]; Homo sapiens, HT-29, 72 h, HT29 cells (colon), 3 day, read-out: Cmpd A 3 day TC50): 1.4 nM
- CC50 ([3]; Homo sapiens, HT-29, 168 h, HT29 (colon), 7 DAY, read-out: TC50 (the source's name)): 1.1 nM
- CC50 ([3]; Homo sapiens, HT-29, 168 h, HT29 cells (colon), 7 day, read-out: Cmpd A 7 day TC50): 1.1 nM
- CC50 ([3]; Homo sapiens, HT-1080, 72 h, HT1080 (sarcoma), 3 DAY, read-out: TC50 (the source's name)): 1 nM
- CC50 ([3]; Homo sapiens, HT-1080, 72 h, HT1080 cells (fibrosarcoma), 3 day, read-out: Cmpd A 3 day TC50): 1 nM
- CC50 ([3]; Homo sapiens, HT-1080, 168 h, HT1080 (sarcoma), 7 DAY, read-out: TC50 (the source's name)): 0.6 nM
- CC50 ([3]; Homo sapiens, HT-1080, 168 h, HT1080 cells (fibrosarcoma), 7 day, read-out: Cmpd A 7 day TC50): 0.6 nM
- CC50 ([3]; Homo sapiens, IGROV-1, 72 h, IGR-OV1 cells (ovary), 3 day, read-out: Cmpd A 3 day TC50): 2 nM
- CC50 ([3]; Homo sapiens, JJN-3, 72 h, JJN3 cells (myeloma (plasma cell leukemia)), 3 day, read-out: Cmpd A 3 day TC50): 0.9 nM
- CC50 ([3]; Homo sapiens, K562, 72 h, K562 cells (myelogenous leukemia), 3 day, read-out: Cmpd A 3 day TC50): 5.7 nM
- CC50 ([3]; Homo sapiens, KARPAS-299, 72 h, KARPAS-299 cells (lymphocytic leukemia), 3 day, read-out: Cmpd A 3 day TC50): 20 nM
- CC50 ([3]; Homo sapiens, KINGS-1, 72 h, KINGS-1 cells (brain, anaplastic astrocytoma (glioma)), 3 day, read-out: Cmpd A 3 day TC50): 2 nM
- CC50 ([3]; Homo sapiens, KM12, 72 h, KM12 (colon), 3 DAY, read-out: TC50 (the source's name)): 0.9 nM
- CC50 ([3]; Homo sapiens, KM12, 72 h, KM12 cells (colon), 3 day, read-out: Cmpd A 3 day TC50): 0.9 nM
- CC50 ([3]; Homo sapiens, KM12, 168 h, KM12 (colon), 7 DAY, read-out: TC50 (the source's name)): 0.4 nM
- CC50 ([3]; Homo sapiens, KM12, 168 h, KM12 cells (colon), 7 day, read-out: Cmpd A 7 day TC50): 0.4 nM
- CC50 ([3]; Homo sapiens, LOX IMVI, 72 h, LOX-IMVI cells (melanoma), 3 day, read-out: Cmpd A 3 day TC50): 15 nM
- CC50 ([3]; Homo sapiens, MCF7, 72 h, MCF7 cells (breast), 3 day, read-out: Cmpd A 3 day TC50): 2.2 nM
- CC50 ([3]; Homo sapiens, MDA-MB-231, 72 h, MDA-MB-231 (breast), 3 DAY, read-out: TC50 (the source's name)): 10 nM
